Laboratory results: US20070049564A1 (Wyeth, priority 2005, published 2007)
≈ marks a conversion by molar mass, not a printed value. Like-named read-outs stand apart in the source and are kept apart here.

Key:
Staph. = assay: Range of MIC for Staph. strains, including MRSA; details: Staphylococcus aureus, MRSA
E. coli = assay: Range of MIC for E. coli strains; details: Escherichia coli
[1] = read-out: Range of MIC, Staph (Mouse Serum)
[2] = read-out: Range of MIC, Staph (Water)
[3] = 20 h, read-out: Range of MIC, E. coli (Mouse Serum)
[4] = read-out: Range of MIC, E. coli (Water)

SMILES	MIC (Staph.; [1]) [µg/mL]	MIC (Staph.; [2]) [µg/mL]	MIC (E. coli; [3]) [µg/mL]	MIC (E. coli; [4]) [µg/mL]
CN(C)c1cc(NC(=O)CN(C(=O)OCOC(=O)c2cccnc2)C(C)(C)C)c(O)c2c1C[C@H]1C[C@H]3[C@H](N(C)C)C(O)=C(C(N)=O)C(=O)[C@@]3(O)C(O)=C1C2=O [Example 88, ({[(2-{[(5aR,6aS,7S,10aS)-9-(aminocarbonyl)-4,7-bis(dimethylamino)-1,8,10a,11-tetrahydroxy-10,12-dioxo-5,5a,6,6a,7,10,10a,12-octahydrotetracen-2-yl]amino}-2-oxoethyl)(tert-butyl)amino]carbonyl}oxy)methyl nicotinate]	1 to 4 (≈ 1.31 to 5.23 µM)	4 to 16 (≈ 5.23 to 20.9 µM)	0.5 to 2 (≈ 0.654 to 2.62 µM)	8 to 16 (≈ 10.5 to 20.9 µM)
CN(C)c1cc(NC(=O)OCOC(=O)CC(C)(C)C)c(O)c2c1C[C@H]1C[C@H]3[C@H](N(C)C)C(O)=C(C(N)=O)C(=O)[C@@]3(O)C(O)=C1C2=O [Example 79, [({[(5aR,6aS,7S,10aS)-9-(aminocarbonyl)-4,7-bis(dimethylamino)-1,8,10a,11-tetrahydroxy-10,12-dioxo-5,5a,6,6a,7,10,10a,12-octahydrotetracen-2-yl]amino}carbonyl)oxy]methyl 3,3-dimethylbutanoate]	4 (≈ 6.2 µM)	4 to 8 (≈ 6.2 to 12.4 µM)		> 64
CN(C)c1cc(NC(=O)OCOC(=O)c2cccs2)c(O)c2c1C[C@H]1C[C@H]3[C@H](N(C)C)C(O)=C(C(N)=O)C(=O)[C@@]3(O)C(O)=C1C2=O [Example 75, [({[(5aR,6aS,7S,10aS)-9-(aminocarbonyl)-4,7-bis(dimethylamino)-1,8,10a,11-tetrahydroxy-10,12-dioxo-5,5a,6,6a,7,10,10a,12-octahydrotetracen-2-yl]amino}carbonyl)oxy]methyl thiophene-2-carboxylate]	8 to 16 (≈ 12.2 to 24.4 µM)	16 to 32 (≈ 24.4 to 48.7 µM)		> 64
CN(C)c1cc(NC(=O)CN(C(=O)OCOC(=O)c2c3ccccc3cc3ccccc23)C(C)(C)C)c(O)c2c1C[C@H]1C[C@H]3[C@H](N(C)C)C(O)=C(C(N)=O)C(=O)[C@@]3(O)C(O)=C1C2=O [Example 106, ({[(2-{[(5aR,6aS,7S,10aS)-9-(aminocarbonyl)-4,7-bis(dimethylamino)-1,8,10a,11-tetrahydroxy-10,12-dioxo-5,5a,6,6a,7,10,10a,12-octahydrotetracen-2-yl]amino}-2-oxoethyl)(tert-butyl)amino]carbonyl}oxy)methyl anthracene-9-carboxylate]	> 64	> 64	> 64	> 64
CN(C)c1cc(NC(=O)CN(C(=O)OCOC(=O)Cc2ccccc2)C(C)(C)C)c(O)c2c1C[C@H]1C[C@H]3[C@H](N(C)C)C(O)=C(C(N)=O)C(=O)[C@@]3(O)C(O)=C1C2=O [Example 67, ({[(2-{[(5aR,6aS,7S,10aS)-9-(aminocarbonyl)-4,7-bis(dimethylamino)-1,8,10a,11-tetrahydroxy-10,12-dioxo-5,5a,6,6a,7,10,10a,12-octahydrotetracen-2-yl]amino}-2-oxoethyl)(tert-butyl)amino]carbonyl}oxy)methyl phenylacetate]	0.12 to 0.25 (≈ 0.154 to 0.321 µM)	0.12 to 1 (≈ 0.154 to 1.29 µM)	0.12 to 0.25 (≈ 0.154 to 0.321 µM)	8 to 32 (≈ 10.3 to 41.1 µM)
COc1cc(OC)cc(C(=O)OCOC(=O)N(CC(=O)Nc2cc(N(C)C)c3c(c2O)C(=O)C2=C(O)[C@]4(O)C(=O)C(C(N)=O)=C(O)[C@@H](N(C)C)[C@@H]4C[C@@H]2C3)C(C)(C)C)c1 [Example 98, ({[(2-{[(5aR,6aS,7S,10aS)-9-(aminocarbonyl)-4,7-bis(dimethylamino)-1,8,10a,11-tetrahydroxy-10,12-dioxo-5,5a,6,6a,7,10,10a,12-octahydrotetracen-2-yl]amino}-2-oxoethyl)(tert-butyl)amino]carbonyl}oxy)methyl 3,5-dimethoxybenzoate]	0.5 to 2 (≈ 0.607 to 2.43 µM)	2 to 4 (≈ 2.43 to 4.86 µM)	1 to 4 (≈ 1.21 to 4.86 µM)	> 64
CN(C)c1cc(NC(=O)CN(C(=O)OCOC(=O)Cc2cc(C(F)(F)F)cc(C(F)(F)F)c2)C(C)(C)C)c(O)c2c1C[C@H]1C[C@H]3[C@H](N(C)C)C(O)=C(C(N)=O)C(=O)[C@@]3(O)C(O)=C1C2=O [Example 101, ({[(2-{[(5aR,6aS,7S,10aS)-9-(aminocarbonyl)-4,7-bis(dimethylamino)-1,8,10a,11-tetrahydroxy-10,12-dioxo-5,5a,6,6a,7,10,10a,12-octahydrotetracen-2-yl]amino}-2-oxoethyl)(tert-butyl)amino]carbonyl}oxy)methyl [3,5-bis(trifluoromethyl)phenyl]acetate]	0.5 to 2 (≈ 0.547 to 2.19 µM)	4 to 16 (≈ 4.38 to 17.5 µM)	1 (≈ 1.09 µM)	16 to 32 (≈ 17.5 to 35 µM)
CN(C)c1cc(NC(=O)CN(C(=O)OCOC(=O)c2cc3ccccc3o2)C(C)(C)C)c(O)c2c1C[C@H]1C[C@H]3[C@H](N(C)C)C(O)=C(C(N)=O)C(=O)[C@@]3(O)C(O)=C1C2=O [Example 69, ({[(2-{[(5aR,6aS,7S,10aS)-9-(aminocarbonyl)-4,7-bis(dimethylamino)-1,8,10a,11-tetrahydroxy-10,12-dioxo-5,5a,6,6a,7,10,10a,12-octahydrotetracen-2-yl]amino}-2-oxoethyl)(tert-butyl)amino]carbonyl}oxy)methyl 1-benzofuran-2-carboxylate]	0.12 to 0.25 (≈ 0.149 to 0.311 µM)	0.12 to 1 (≈ 0.149 to 1.24 µM)	0.12 to 0.5 (≈ 0.149 to 0.622 µM)	8 to 64 (≈ 9.95 to 79.6 µM)
Cc1cc(C)c(C(=O)OCOC(=O)N(CC(=O)Nc2cc(N(C)C)c3c(c2O)C(=O)C2=C(O)[C@]4(O)C(=O)C(C(N)=O)=C(O)[C@@H](N(C)C)[C@@H]4C[C@@H]2C3)C(C)(C)C)c(C)c1 [Example 95, ({[(2-{[(5aR,6aS,7S,10aS)-9-(aminocarbonyl)-4,7-bis(dimethylamino)-1,8,10a,11-tetrahydroxy-10,12-dioxo-5,5a,6,6a,7,10,10a,12-octahydrotetracen-2-yl]amino}-2-oxoethyl)(tert-butyl)amino]carbonyl}oxy)methyl 2,4,6-trimethylbenzoate]		> 64	> 64	> 64
CCC(C)(C)C(=O)OCOC(=O)Nc1cc(N(C)C)c2c(c1O)C(=O)C1=C(O)[C@]3(O)C(=O)C(C(N)=O)=C(O)[C@@H](N(C)C)[C@@H]3C[C@@H]1C2 [Example 80, [({[(5aR,6aS,7S,10aS)-9-(aminocarbonyl)-4,7-bis(dimethylamino)-1,8,10a,11-tetrahydroxy-10,12-dioxo-5,5a,6,6a,7,10,10a,12-octahydrotetracen-2-yl]amino}carbonyl)oxy]methyl 2,2-dimethylbutanoate]	4 to 8 (≈ 6.2 to 12.4 µM)	4 to 16 (≈ 6.2 to 24.8 µM)		
CN(C)c1cc(NC(=O)CN(C(=O)OCOC(=O)c2ccncc2)C(C)(C)C)c(O)c2c1C[C@H]1C[C@H]3[C@H](N(C)C)C(O)=C(C(N)=O)C(=O)[C@@]3(O)C(O)=C1C2=O [Example 89, ({[(2-{[(5aR,6aS,7S,10aS)-9-(aminocarbonyl)-4,7-bis(dimethylamino)-1,8,10a,11-tetrahydroxy-10,12-dioxo-5,5a,6,6a,7,10,10a,12-octahydrotetracen-2-yl]amino}-2-oxoethyl)(tert-butyl)amino]carbonyl}oxy)methyl isonicotinate]	0.5 to 1 (≈ 0.654 to 1.31 µM)	1 to 4 (≈ 1.31 to 5.23 µM)	0.25 to 1 (≈ 0.327 to 1.31 µM)	4 to 8 (≈ 5.23 to 10.5 µM)
CN(C)c1cc(NC(=O)CN(C(=O)OCOC(=O)c2ccccc2C(F)(F)F)C(C)(C)C)c(O)c2c1C[C@H]1C[C@H]3[C@H](N(C)C)C(O)=C(C(N)=O)C(=O)[C@@]3(O)C(O)=C1C2=O [Example 92]	4 (≈ 4.81 µM)	8 to 32 (≈ 9.62 to 38.5 µM)	4 to 8 (≈ 4.81 to 9.62 µM)	> 64
CN(C)c1cc(NC(=O)CN(C(=O)OCOC(=O)c2ccc(C(=O)c3ccccc3)cc2)C(C)(C)C)c(O)c2c1C[C@H]1C[C@H]3[C@H](N(C)C)C(O)=C(C(N)=O)C(=O)[C@@]3(O)C(O)=C1C2=O [Example 107, ({[(2-{[(5aR,6aS,7S,10aS)-9-(aminocarbonyl)-4,7-bis(dimethylamino)-1,8,10a,11-tetrahydroxy-10,12-dioxo-5,5a,6,6a,7,10,10a,12-octahydrotetracen-2-yl]amino}-2-oxoethyl)(tert-butyl)amino]carbonyl}oxy)methyl 4-benzoylbenzoate]	2 to 8 (≈ 2.3 to 9.22 µM)	0.5 to 1 (≈ 0.576 to 1.15 µM)	> 64	0.5 to 1 (≈ 0.576 to 1.15 µM)
CN(C)c1cc(NC(=O)CN(C(=O)OCOC(=O)COc2ccc(F)cc2)C(C)(C)C)c(O)c2c1C[C@H]1C[C@H]3[C@H](N(C)C)C(O)=C(C(N)=O)C(=O)[C@@]3(O)C(O)=C1C2=O [Example 64]	0.12 to 0.25 (≈ 0.148 to 0.308 µM)	0.12 to 0.5 (≈ 0.148 to 0.616 µM)	< 0.12	0.12 to 1 (≈ 0.148 to 1.23 µM)
Cc1cccc(C)c1C(=O)OCOC(=O)N(CC(=O)Nc1cc(N(C)C)c2c(c1O)C(=O)C1=C(O)[C@]3(O)C(=O)C(C(N)=O)=C(O)[C@@H](N(C)C)[C@@H]3C[C@@H]1C2)C(C)(C)C [Example 66, ({[(2-{[(5aR,6aS,7S,10aS)-9-(aminocarbonyl)-4,7-bis(dimethylamino)-1,8,10a,11-tetrahydroxy-10,12-dioxo-5,5a,6,6a,7,10,10a,12-octahydrotetracen-2-yl]amino}-2-oxoethyl)(tert-butyl)amino]carbonyl}oxy)methyl 2,6-dimethylbenzoate]	1 to 16 (≈ 1.26 to 20.2 µM)	2 to 16 (≈ 2.53 to 20.2 µM)	> 128	> 128
CN(C)c1cc(NC(=O)CN(C(=O)OCOC(=O)c2cn(C)c3ccccc23)C(C)(C)C)c(O)c2c1C[C@H]1C[C@H]3[C@H](N(C)C)C(O)=C(C(N)=O)C(=O)[C@@]3(O)C(O)=C1C2=O [Example 83, ({[(2-{[(5aR,6aS,7S,10aS)-9-(aminocarbonyl)-4,7-bis(dimethylamino)-1,8,10a,11-tetrahydroxy-10,12-dioxo-5,5a,6,6a,7,10,10a,12-octahydrotetracen-2-yl]amino}-2-oxoethyl)(tert-butyl)amino]carbonyl}oxy)methyl 1-methyl-1H-indole-3-carboxylate]	8 to 32 (≈ 9.79 to 39.2 µM)	2 to 16 (≈ 2.45 to 19.6 µM)		> 64
